Results as given in US8318743B2, “Medicament for the enhancement of cognitive function and neuroprotection” (Egis Gyogyszergyar Nyilvanosan Mukodo Reszvenytarsasag, priority 2006, dated 2012).
Marks after values point to notes of the source that are not given here.

Key:
male gerbils = assay: global cerebral ischemia model by bilateral carotid artery occlusion, hippocampal CA1 neuronal damage; type: in vivo, gerbil; conditions: for proportion of the neuronal damage in CA1 region of the hippocampus / Effect %: 0.1 mg/kg ip.; for CA 1 lesion: 0.1 mg/kg ip. 45 minutes after surgery, average score on scale 0-6, four days after 3 min bilateral carotid occlusion; for Effect %: CA1 lesion score versus control animals
Procedure: The neuroprotective effect of 4-chloro-5-{2-[4-(6-fluoro-1,2-benz[d]isoxazole-3-yl)piperidin-1-yl]ethyl-amino}-2-methyl-3-(2H)pyridazinone of the Formula (I) was tested in gerbils by global cerebral ischemia model by bilateral occlusion of the carotid artery and in rats by focal cerebral ischemia model via the permanent occlusion of the central cerebral artery. Risperidone[3-(2-(4-(6-fluoro-1,2-benz[d]isoxazole-3-yl)-1-piperidinyl)ethyl)-6,7,8,9-tetrahydro-2-methyl-4H-pyrido[1,2-a]pyrimidin-4-one] of the Formula (II) was used as reference compound.
The tests in the global cerebral ischemia model were performed in male gerbils weighing 50-80 g. During surgery, the animals were anaesthetized with ether, and the carotid arteries were set free in the paratracheal region by a ventral incision in the central region. The carotid arteries were separated from the vagosympatic nerve-trunk and were occluded for 3 minutes using artery forceps and subsequently released. The body temperature of the animals was checked during surgery and was kept in the normal range using an infrared lamp (37.5±0.5° C.). The test substance 4-chloro-5-{2-[4-(6-fluoro-1,2-benz[d]isoxazole-3-yl)piperidin-1-yl]ethyl-amino}-2-methyl-3-(2H)pyridazinone of the Formula (I) and the reference substance risperidone of the Formula (II) were administered in a dose of 0.1 mg/kg intraperitoneally 45 minutes after surgery.
Four days after surgery, animals were anaesthetised using pentobarbital-Na (60 mg/kg ip., 10 ml/kg) and the brains were perfused with saline thorough the left ventricle. The perfusion was continued for an additional 30 minutes using fixative solution (200 ml/animal). The fixative solution contained 0.1% of glutaraldehyde, 4% of paraformaldehyde and 0.2% of picric acid in 0.1 M phosphate buffer (pH 7.4). After perfusion, the brains were removed from the skulls and were stored in the above-mentioned fixative solution for at least one week at 4° C. in a refrigerator.
The cerebral part containing the dorsal hippocampus has been dissected into 60-μm thick coronal sections using a freezing microtome. The sections were washed four times by shaking for 30 minutes in 0.1 M phosphate buffer (pH 7.4) during which the cerebral sections were floating in the washing solution. Subsequently the cerebral sections were stained using silver impregnation. The staining by the silver impregnation method comprises (a) immersing the sample into a preparatory solution twice for 5 minutes (the preparatory solution comprises aqueous 2% sodium hydroxide and 0.875% ammonium hydroxide solution); (b) immersing the sample into the impregnating solution for 10 minutes (solution of 0.875% ammonium hydroxide and 0.5% silver nitrate in water), (c) washing the sample twice for 2 minutes and finally for one minute in the solution of 0.5% of sodium carbonate and 0.01% ammonium nitrate in aqueous 29.1% ethanol); (d) development for one minute by immersing the section into a development solution (1-1.5% formaldehyde and 0.01% ammonium nitrate in 9.9% ethanol), (e) fixation three times for three minutes each in 0.5% acetic acid solution. The stained cerebral sections were placed into 0.1 M phosphate buffer (pH 7.4) and subsequently chromic gelatine, mounted on slides and dehydrated (dried), treated with xylene for 10 minutes and the cover plates were attached using DPX histological adhesive (Fluka).
The bilateral neuronal damage in the CAl region of the hippocampus have been evaluated on a six-score scale as follows: 0—no damage observed; 1—0-10% neuronal damage; 2—10-30% neuronal damage; 3—30-50% neuronal damage; 4—50-70% neuronal damage; 5—70-90% neuronal damage; 6—90-100% neuronal damage. The average scores measured in the treated group were expressed in the percentage of the average scores observed in the case of the control animals. The statistical evaluation was carried out by non-parametric Mann-Whitney U-test.

male Wistar rats = assay: passive avoidance test (step-through); type: in vivo, rat; conditions: for effect on memory in passive avoidance: 0.005 mg/kg p.o.
Procedure: The passive avoidance tests were carried out in male Wistar rats weighing 200 to 220 g (Charles River, Budapest). The experimental animals were kept in a room having a circadian light-dark periods of 12-12 hours. The light was switched on at 6:00 am. The relative humidity of the room was 60±10%.
The tests were carried out in a so-called step-through type apparatus with five channels which is suitable for testing of passive avoidance learning.
The apparatus comprises two plexiglass boxes of 20×20×16 cm. One of the boxes is clear, the other one is non-transparent, black-painted. There exists a separating wall between the boxes having an opening of 7.5×8 cm. The opening can be opened or closed by a computer-controlled shutter door. The transition of the rat from one box into the other is detected by two parallel photocell rows and the door is automatically shut after the transition of the animal. The floor of the black-painted box consists of stainless steel rods equipped with an electrical circuit suitable for the delivery of an electric shock. There is a 10-W bulb above the door at the light (transparent) side of the apparatus.
The tests were carried out on two subsequent days with a 24-hour time difference.
The first part of the test is the so-called acquisition period, wherein the animal is able to gain specific information characteristic to the situation (upon entry into the dark box, an electric shock is delivered). The second part of the test is the so-called retention period. In this stage, the ability of the animal to remember the information which was collected in the first part is tested (upon entry into the dark part, an electric shock will be delivered, therefore it is less traumatic to stay in the light compartment).
On the first day of the testing (acquisition period), the numbered animals are placed into the clear compartment of the apparatus while the shutter door is closed. After 30 seconds, the door is opened and the animal could freely enter the dark box. At the same time, the clock for the measurement of the transition latency was started. The transition latency is the period of time which elapses between the opening of the shutter door and the transition of the animal from the light compartment into the dark one. When the animal entered the dark box, the clock measuring the latency is stopped. 3 seconds after the entry into the dark compartment, an electric shock of 0.4 mA is delivered for 10 seconds to the animals in the form of a paw shock. Animals belonging to the absolute control groups were not delivered a paw shock. After the electric shock, the animals were immediately removed from the apparatus. A 180-sec period was available for the animals to enter the dark compartment. […] This is the essence of acquisition.
During the second-day test (retention) after 24 hours, the animals were placed into the apparatus again. The subsequent part of the procedure was identical to that performed on the first day with the only difference that except for one group, no electric shock was delivered to the animals. Similarly to the first day, 180 sec was provided for the animals to enter the dark box.
During the tests directed to the determination of the effect of 4-chloro-5-{2-[4-(6-fluoro-1,2-benz[d]isoxazole-3-yl)piperidin-1-yl]ethyl-amino}-2-methyl-3-(2H)pyridazinone of the Formula (I), the experimental animals were treated with the test substance and the reference substance or with vehicle (0.4% methylcellulose) on the second day, 60 minutes before placing the animals into the apparatus. The treatment was carried out orally at a dose of 0.005 mg/kg in a volume of 5 ml/kg.
The statistical evaluation was carried out with multiple way variance analysis. The differences between groups were analyzed by Duncan-test.

rats = assay: object recognition test; type: in vivo, rat
Text: The object recognition test in rats is based on the observation that when animals are encountered with unknown environment, they scour around and discover the available area. They act similarly in case of unknown objects arranged within their area.
In the present experimental arrangement, one day prior to the actual testing day, animals are placed in a box where they have two minutes to get acquainted with the surroundings. On the first day of the experiment, two identical objects (in the present arrangement, a plastic rinse bottle and a glass bottle) are placed in the box and the length of the period is determined during which the animals spend time while examining the two objects. The length of test period is 4-5 minutes. The difference between the length of the time periods spent with the examination of each object is the so-called discrimination index.
On the second day (24 hours after the first testing period) of the experiment, two different objects are placed in the box, among which one is known for the animals and the other is unknown.
In the case when a memory-enhancing drug is administered to the animals on the first day (e.g. orally, 60 minutes prior to testing), the animals are able to recall the already known objects better and the discrimination index is increased in favour of the unknown object.

[1] = 0.4 mA/10 sec electric shock + treatment 0.005 mg/kg p.o. 60 minutes before test
[2] = treatment 0.005 mg/kg p.o. without electric shock

| Compound | proportion of the neuronal damage in CA1 region of the hippocampus (male gerbils) | CA 1 lesion (male gerbils) | Effect % (male gerbils) | effect on memory in passive avoidance (male Wistar rats) | Transition latency First Day sec ± SE (male Wistar rats; [1]) | Transition latency First Day sec ± SE (male Wistar rats; [2]) | memory functions in object recognition (rats; 0.01 mg/kg) | Discrimination index(s) Day 1 (rats; 0.01 mg/kg p.o., Day 1) | Discrimination index(s) Day 2 (rats; 0.01 mg/kg p.o., Day 2 (24 hours after first testing)) |
| --- | --- | --- | --- | --- | --- | --- | --- | --- | --- |
| Cn1ncc(NCCN2CCC(c3noc4cc(F)ccc34)CC2)c(Cl)c1=O [Formula (I), 4-chloro-5-{2-[4-(6-fluoro-1,2-benz[d]isoxazole-3-yl)piperidine-1-yl]ethyl-amino}-2-methyl-3-(2H)pyridazinone] | significantly decreased | 2.80** | −46% | significantly improved the memory | 155.9 ± 15.5^++ sec | 21.2 ± 8.8 s | significantly enhanced | 0.4 ± 0.8 s | 10.9 ± 1.4 s |
| Cc1nc2n(c(=O)c1CCN1CCC(c3noc4cc(F)ccc34)CC1)CCCC2 [Risperidone, 3-(2-(4-(6-fluoro-1,2-benz[d]isoxazole-3-yl)-1-piperidinyl)-ethyl)-6,7,8,9-tetrahydro-2-methyl-4H-pyrido[1,2-a]pyrimidin-4-one, reference compound] | ineffective | 4.67 | −2% | did not exhibit any effect | 85.5 ± 22.0 s | 36.1 ± 15.9 s | – | – | – |
